Data taken from publication PMC12189671, “Antioxidant Activity and Cytotoxicity Evaluation of New Catechol Hydrazinyl-Thiazole Derivatives as Potential Protectors in Retinal Degenerative Processes” (Antioxidants, 2025).

How the values were obtained:
[1] = DPPH radical scavenging assay; details: 30 min incubation, λ = 517 nm
Experimental: The DPPH^• radical scavenging assay is based on transferring a hydrogen atom from the tested compounds to the violet stable free radical DPPH^• (2,2-diphenyl-1-picrylhydrazyl radical), converting it into a yellow compound. The assay was conducted using tested compounds and references in concentrations ranging from 2 to 50 µM, according to our adaptation of the protocol of Brand-Williams et al.. The absorbance of the samples is given by the remaining unreacted reagent radical, and it is inversely proportional to the amount of DPPH^• neutralized. The absorbance of the samples was measured at λ = 517 nm after 30 min of incubation in the dark at room temperature. The DPPH^• radical scavenging activity of the compounds was calculated using Equation (1):(1) DPPH^• scavenging (%)=control absorbance−sample absorbance/control absorbance×100

[2] = Indirect 1O2 scavenging assay (ICG photo-generator, DPBF probe)
Experimental: The ^1O2 scavenging assay was employed using a previously established indirect protocol from our research group. In brief, indocyanine green (ICG), from Sigma–Aldrich (St. Louis, MO, USA), was utilized to induce ^1O2 production in the presence of 5a and 5b. Ascorbic acid was used as a reference antioxidant agent, and a blank sample without ^1O2 scavengers was prepared. The reaction mixtures were exposed to a Micro Raman System R-3000 (Photonitech, Singapore, Singapore) laser diode,(λ = 785 nm, 190 mW power) for a total time of 100 s. To evaluate the ^1O2 scavenging activity of the compounds 5a,b, the degradation of 1,3-diphenylisobenzofuran (DPBF), obtained from Alfa Aesar (Haverhill, MA, USA), was measured using a V-730 spectrophotometer (Jasco International Co., Ltd., Tokyo, Japan). To determine the ^1O2 quantum yields (Φ(^1O2)) of ICG in the presence of the studied molecules, the following equation was used: Φ(^1O2) = Φ(^1O2) ^ICG × ((S × F^ICG)/(S^ICG × F)), where S represents the slope of the absorbance difference of DPBF over time, F is the absorption correction factor (F = 1 − 10^−OD), and OD is the optical density at the excitation wavelength, λ = 785 nm. The Φ(^1O2) equal to 15.0% of free ICG was used as a reference. The concentrations utilized in the experiment were 0.1 mM for DPBF and 10^−5 M for ICG and the ^1O2 scavengers. Free DPBF was used as a control.
The efficacy of compounds 5a,b against ^1O2 was assessed using an indirect approach. ICG was used as a photo-induced ^1O2 generator alongside DPBF, serving as an indirect chemical probe capable of characterizing ^1O2 release in solution. This setup allowed us to evaluate the ^1O2 scavenging capacity of the tested molecules and compare their activity to a reference compound, specifically ascorbic acid. The samples were exposed to 785 nm laser radiation, and at 10-s intervals after irradiation, their UV-Vis absorption spectra were measured and analyzed (Figure 9). Subsequently, we determined the ^1O2 quantum yields (Φ(^1O2)) of ICG in the presence of 5a,b and ascorbic acid, using the Φ(^1O2) of free ICG of 15.0% as reference.

[3] = Ferrous ions chelation assay (ferrozine)
Experimental: Solutions of the tested compounds or ethylenediaminetetraacetic acid disodium salt (EDTA-Na2), used as a positive control, were thoroughly mixed with 0.5 mL of FeSO4 (0.125 mM) and 0.5 mL of ferrozine (0.315 mM). After a 10-min incubation in the dark at room temperature, the absorbance was measured at λ = 562 nm.

[4] = set-up: method as in PMID 30881661; details: free ICG, used as reference; cited from earlier work
[5] = ABTS radical cation decolorization assay; details: 10 min incubation, pH 7.4, λ = 734 nm
Experimental: The ABTS^•+ (2,2′-azinobis-(3-ethylbenzothiazoline-6-sulfonic acid) decolorization assay, based on the method of Re et al., was performed in the concentration range of 1 to 25 µM according to protocols previously reported by our group. The reagent was prepared in a 0.1 M potassium phosphate buffer (pH 7.4) and activated overnight with MnO2 [89]. Prior to use, the stability of the ABTS^•+ reagent was verified by checking its absorbance at λ = 734 nm over one hour, ensuring a consistent absorption of around 0.7. The mixtures were incubated for 10 min in the dark at room temperature. The absorbance of the samples is given by the remaining unreacted reagent radical, and it is inversely proportional to the amount of ABTS^•+ neutralized. The ABTS^•+ scavenging activity of compounds was calculated using Equation (2).(2) ABTS^•^+ scavenging (%)=control absorbance−sample absorbance/control absorbance×100

[6] = system: rat microsomal membrane lipid peroxidation; assay: Lipid peroxidation inhibition assay (LPI), 2-thiobarbituric acid method; format: biochemical; details: ascorbic acid/Fe^2+ system, 37 °C, 45 min
Experimental: Rat liver microsomes were homogenized in saline, and the resulting homogenates were centrifuged at 9000× g for 20 min at 4 °C to remove cell debris. The supernatant underwent ultracentrifugation at 110,000× g for 40 min at 4 °C. The pelleted microsomal fraction was subsequently washed with saline via another round of ultracentrifugation under identical conditions. Thereafter, the pellet was resuspended in Tris-HCl buffer (pH 7.4) to achieve a concentration equivalent to 0.5 g liver per mL and was stored until further analysis (at −80 °C). For the assay, the microsomal preparation was thermally inactivated by incubation at 90 °C for 90 s, then homogenized again and diluted to a final concentration equivalent to 4 mM fatty acid equivalents. […] All mixtures were incubated at 37 °C under air with continuous shaking. […] This was followed by heating at 90 °C for 20 min and centrifugation at 3000 rpm for 15 min. As a result of the breakdown of unsaturated fatty acids, malondialdehyde reacts with the 2-thiobarbituric acid to produce a pink compound due to the formation of a Schiff base. The extent of lipid peroxidation was measured spectrophotometrically at 535/600 nm, which is proportional to the amount of the chromogen reaction product formed between 2-thiobarbituric acid and malondialdehyde. The determinations were performed in triplicate, and the standard deviation was within ±10% of the mean value.

OR51E2 = system: OR51E2; set-up: method as in PMID 29249973; details: RPE cells; cited from earlier work

O=C1O[C@H]([C@@H](O)CO)C(O)=C1O [Ascorbic acid, ascorbic acid, reference compound]
IC50 [1]: 50.2 µM | ^1O2 quantum yield Φ(^1O2) of ICG in the presence of the scavenger ([2]; 10^−5 M ICG and scavenger, 785 nm laser, 100 s): 9.4% | reduction of ^1O2 quantum yield of ICG compared to ICG alone ([2]; addition of scavenger to ICG): 5.6%

O=C([O-])CN(CCN(CC(=O)O)CC(=O)O)CC(=O)[O-].[Na+].[Na+] [EDTA-Na2, ethylenediaminetetraacetic acid disodium salt, reference compound]
% of ferrous ions chelation ([3]; 50 nM): 11.71% | % of ferrous ions chelation ([3]; 100 nM): 20.00% | % of ferrous ions chelation ([3]; 150 nM): 36.37% | % of ferrous ions chelation ([3]; 175 nM): 61.98% | % of ferrous ions chelation ([3]; 200 nM): 86.53%

CC1(C)C(/C=C/C=C/C=C/C=C2\N(CCCCS(=O)(=O)O)c3ccc4ccccc4c3C2(C)C)=[N+](CCCCS(=O)(=O)[O-])c2ccc3ccccc3c21 [ICG, indocyanine green]
^1O2 quantum yield Φ(^1O2) of ICG alone [4]: 15%

Cc1c(C)c2c(c(C)c1O)CCC(C)(C(=O)O)O2 (stereo not shown) [Trolox, reference compound]
IC50 [1]: 35.8 µM | IC50 [5]: 15.9 µM | IC50 [6]: 25 µM

CC(=O)/C=C/C1=C(C)CCCC1(C)C [β-ionone]
threshold concentration to trigger a cellular response (OR51E2): under 10 µM
